pEC50: −log10 of the molar value. Values belong to the compound of their own block, whether it stands above or below them.
Tests used:
[1] = target: T1, ACE2-B^0AT1 complex (Homo sapiens, UniProt Q695T7); assay: cryo-EM structure of the complex, […] A; format: binding; settings: central substrate site between TM1 and TM6
T1 construct: gene SLC6A19; purified complex for cryo-EM; with Angiotensin-converting enzyme 2

[2] = target: T1, ACE2-B^0AT1 complex; assay: cryo-EM structure of the complex, […] A; format: binding; settings: central substrate site between TM1 and TM6; remark: listed apart in the source
[3] = target: T2, ACE2-SIT1 complex (Homo sapiens, UniProt Q9NP91); assay: Pro-induced transport current in HEK293T cells co-expressing SIT1 and ACE2; format: cell-based
T2 construct: gene SLC6A20; co-expressed in HEK293T cells for currents; purified complex for cryo-EM (two protomers, each ACE2 plus SIT1); with Angiotensin-converting enzyme 2

[4] = target: T3, ACE2-SIT1 complex (Homo sapiens, UniProt Q9NP91, Q247A); assay: as above; format: cell-based
T3 construct: gene SLC6A20; co-expressed in HEK293T cells for currents; purified complex for cryo-EM (two protomers, each ACE2 plus SIT1); with Angiotensin-converting enzyme 2
T3 sequence (Q9NP91 whole entry Q247A): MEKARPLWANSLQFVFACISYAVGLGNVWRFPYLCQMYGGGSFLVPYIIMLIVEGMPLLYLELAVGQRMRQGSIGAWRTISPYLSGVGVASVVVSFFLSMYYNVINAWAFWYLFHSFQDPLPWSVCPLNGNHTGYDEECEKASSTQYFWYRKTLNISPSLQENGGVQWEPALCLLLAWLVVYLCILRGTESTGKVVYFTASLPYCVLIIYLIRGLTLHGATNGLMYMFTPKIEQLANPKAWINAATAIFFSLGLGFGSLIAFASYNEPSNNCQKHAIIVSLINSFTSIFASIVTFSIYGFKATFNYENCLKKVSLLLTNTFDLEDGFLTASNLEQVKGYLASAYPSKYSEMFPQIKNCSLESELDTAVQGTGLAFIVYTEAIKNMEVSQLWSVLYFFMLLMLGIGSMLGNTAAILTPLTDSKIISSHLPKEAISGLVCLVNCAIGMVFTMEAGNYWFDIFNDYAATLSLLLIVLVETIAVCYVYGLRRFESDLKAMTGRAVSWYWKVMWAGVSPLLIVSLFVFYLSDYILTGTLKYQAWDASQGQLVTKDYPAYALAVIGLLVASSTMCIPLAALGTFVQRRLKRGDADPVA
T3 sequence (Q9BYF1 18-805 partner): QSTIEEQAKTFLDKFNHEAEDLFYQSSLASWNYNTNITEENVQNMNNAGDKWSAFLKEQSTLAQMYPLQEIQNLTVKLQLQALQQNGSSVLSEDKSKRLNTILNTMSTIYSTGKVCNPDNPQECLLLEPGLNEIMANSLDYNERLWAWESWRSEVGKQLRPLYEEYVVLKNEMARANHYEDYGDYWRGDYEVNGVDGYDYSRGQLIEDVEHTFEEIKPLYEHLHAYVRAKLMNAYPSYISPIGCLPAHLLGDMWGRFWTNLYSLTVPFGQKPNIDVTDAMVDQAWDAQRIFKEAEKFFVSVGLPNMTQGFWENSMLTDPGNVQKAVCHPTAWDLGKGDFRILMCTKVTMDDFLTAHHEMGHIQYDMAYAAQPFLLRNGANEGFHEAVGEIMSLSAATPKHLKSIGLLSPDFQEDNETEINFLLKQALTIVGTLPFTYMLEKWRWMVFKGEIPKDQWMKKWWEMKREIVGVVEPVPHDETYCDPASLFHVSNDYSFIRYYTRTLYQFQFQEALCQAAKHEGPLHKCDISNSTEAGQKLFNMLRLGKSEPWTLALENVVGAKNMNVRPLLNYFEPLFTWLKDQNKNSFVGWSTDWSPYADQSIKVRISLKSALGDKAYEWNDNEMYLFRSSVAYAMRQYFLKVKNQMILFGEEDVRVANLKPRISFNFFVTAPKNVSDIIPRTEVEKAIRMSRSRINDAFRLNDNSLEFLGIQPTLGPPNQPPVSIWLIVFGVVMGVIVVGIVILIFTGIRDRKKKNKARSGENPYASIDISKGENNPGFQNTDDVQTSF

T1 sequence (Q695T7 whole entry): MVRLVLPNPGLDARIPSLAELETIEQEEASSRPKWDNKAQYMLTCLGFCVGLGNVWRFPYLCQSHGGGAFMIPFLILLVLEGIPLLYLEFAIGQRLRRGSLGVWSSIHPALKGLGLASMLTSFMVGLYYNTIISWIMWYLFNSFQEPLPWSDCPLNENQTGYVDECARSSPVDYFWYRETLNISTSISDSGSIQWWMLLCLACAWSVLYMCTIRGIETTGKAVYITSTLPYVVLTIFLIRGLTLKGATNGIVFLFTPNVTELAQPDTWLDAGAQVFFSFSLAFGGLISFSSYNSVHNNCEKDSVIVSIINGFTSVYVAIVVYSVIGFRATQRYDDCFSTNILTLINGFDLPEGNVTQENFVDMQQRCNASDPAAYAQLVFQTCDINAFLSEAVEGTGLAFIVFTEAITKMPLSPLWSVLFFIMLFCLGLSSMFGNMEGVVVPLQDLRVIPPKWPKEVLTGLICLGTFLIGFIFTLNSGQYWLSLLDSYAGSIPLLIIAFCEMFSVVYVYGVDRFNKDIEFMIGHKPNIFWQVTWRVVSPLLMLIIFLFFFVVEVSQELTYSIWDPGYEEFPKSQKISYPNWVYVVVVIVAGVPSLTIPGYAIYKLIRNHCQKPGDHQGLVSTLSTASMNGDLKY
T1 sequence (Q9BYF1 18-805 partner): as the sequence (Q9BYF1 18-805 partner) above
T2 sequence (Q9NP91 whole entry): as the sequence (Q9NP91 whole entry Q247A) above, with A247Q counted along it
T2 sequence (Q9BYF1 18-805 partner): as the sequence (Q9BYF1 18-805 partner) above

Compound: NC(=O)CC[C@H](N)C(=O)O [Gln]
cryo-EM structure of the complex, 3.2 A [1]: ACE2-B^0AT1 complex bound to its native substrates Gln and Met are determined

Compound: CSCC[C@H](N)C(=O)O [Met]
cryo-EM structure of the complex, 3.1 A [2]: ACE2-B^0AT1 complex bound to its native substrates Gln and Met are determined

pEC50 [3]: ~2.60
pEC50 [4]: ~4.15
Compound: O=C(O)[C@@H]1CCCN1 [Pro]

From article PMC10491607, “Structural insight into the substrate recognition and transport mechanism of amino acid transporter complex ACE2-B^0AT1 and ACE2-SIT1” (Cell Discovery, 2023)
